The record followed here is US5183899A, “Pyrazole derivative” (Takeda Chemical Industries, Ltd., priority 1989, dated 1993).

For orientation: inhibition means the relative decrease from the control value, in per cent. High values mean strong suppression, low ones little suppression.

This experiment has as its target T1, angiotensin II receptor (Bos taurus, UniProt P25104).
T1 construct: An A II receptor membrane fraction was prepared from bovine adrenal cortex; from tissue; host or cells: bovine adrenal cortex, receptor membrane fraction
T1 sequence (P25104 1-359): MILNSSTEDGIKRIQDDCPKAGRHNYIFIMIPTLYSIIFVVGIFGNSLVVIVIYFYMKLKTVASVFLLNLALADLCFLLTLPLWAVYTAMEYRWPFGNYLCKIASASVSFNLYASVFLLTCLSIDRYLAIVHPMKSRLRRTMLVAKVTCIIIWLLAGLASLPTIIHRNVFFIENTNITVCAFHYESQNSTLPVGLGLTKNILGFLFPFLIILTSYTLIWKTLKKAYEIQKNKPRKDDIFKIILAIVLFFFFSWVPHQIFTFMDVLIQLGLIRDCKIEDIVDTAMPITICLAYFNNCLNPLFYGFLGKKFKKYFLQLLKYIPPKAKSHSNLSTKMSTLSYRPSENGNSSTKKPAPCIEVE
In words: Inhibition of binding of angiotensin II to angiotensin receptors (125I-angiotensin II binding, receptor membrane fraction from bovine adrenal cortex). Particulars: 125I-A II, room temperature, 1 hour; for inhibition at 10 µM: 1 × 10^-5 (M); for inhibition at 1 µM: 1 × 10^-6 (M). On the procedure:
Inhibition of binding of angiotensin II to angiotensin receptors
An experiment of inhibition of angiotensin II (A (II) receptor binding was conducted according to the modified Douglas et al's method [Endocrinology,102, 685-695 (1978)]. An A II receptor membrane fraction was prepared from bovine adrenal cortex.
the compound of the present invention (10^-6 -10^-5 M) and ^125 I-angiotensin II (^125 I-A II) (1.85 kBq/50 μl) were added to the receptor membrane fraction and incubated at room temperature for 1 hour. Bound and free ^125 I-A II's were separated through a filter (Whatman GF/B filter), and the radioactivity of ^125 I-A II bound to the receptor was measured.

Molecule `CCCCc1cc(C(=O)OCC)nn1Cc1ccc(-c2ccccc2-c2nn[nH]n2)cc1` [compound 1] gave an inhibition at 10 µM of 92% and an inhibition at 1 µM of 75%.

Take `CCCCNC(=O)c1cc(CCCC)n(Cc2ccc(-c3ccccc3-c3nn[nH]n3)cc2)n1` [compound 2]: the inhibition at 10 µM was 95% and the inhibition at 1 µM is 80%.

For the molecule `CCCCc1cc(C(=O)NC(C)(C)C)nn1Cc1ccc(-c2ccccc2-c2nn[nH]n2)cc1` [compound 3], the inhibition at 10 µM is 94% and the inhibition at 1 µM was determined as 81%.

Regarding `CCCCc1cc(C(=O)NC2CCCCC2)nn1Cc1ccc(-c2ccccc2-c2nn[nH]n2)cc1` [compound 5], the inhibition at 10 µM came out at 98% and the inhibition at 1 µM was found to be 93%.

In turn, `CCCCc1cc(C(=O)NCc2ccccc2)nn1Cc1ccc(-c2ccccc2-c2nn[nH]n2)cc1` [compound 6] returned an inhibition at 10 µM of 95% and an inhibition at 1 µM of 83%.

For the molecule `CCCCc1cc(C(=O)Nc2ccccc2)nn1Cc1ccc(-c2ccccc2-c2nn[nH]n2)cc1` [compound 7], the inhibition at 10 µM was 97% and the inhibition at 1 µM stood at 91%.

`CCCCc1cc(C(=O)NC2Cc3ccccc3C2)nn1Cc1ccc(-c2ccccc2-c2nn[nH]n2)cc1` [compound 8] returned an inhibition at 10 µM of 95% and an inhibition at 1 µM of 86%.

On to `CCCCc1cc(C(=O)NOCc2ccccc2)nn1Cc1ccc(-c2ccccc2-c2nn[nH]n2)cc1` [compound 9], for which the inhibition at 10 µM was 96% and 1 µM produced 73% inhibition.

For `CCCCc1cc(C(=O)NCC)nn1Cc1ccc(-c2ccccc2-c2nn[nH]n2)cc1` [compound 12], the inhibition at 10 µM was 97% and the inhibition at 1 µM was determined as 85%.

Molecule `CCCCc1cc(C(=O)NCCC)nn1Cc1ccc(-c2ccccc2-c2nn[nH]n2)cc1` [compound 13] showed an inhibition at 10 µM of 99% and an inhibition at 1 µM of 85%.

`CCCCc1cc(C(N)=O)nn1Cc1ccc(-c2ccccc2-c2nn[nH]n2)cc1` [compound 14] returned an inhibition at 10 µM of 93% and an inhibition at 1 µM of 75%.

Take `CCCCc1cc(C(=O)NCCOC)nn1Cc1ccc(-c2ccccc2-c2nn[nH]n2)cc1` [compound 15]: testing at 10 µM gave an inhibition of 95% and the inhibition at 1 µM came to 88%.

`CCCCc1cc(C(=O)NC(C)C)nn1Cc1ccc(-c2ccccc2-c2nn[nH]n2)cc1` [compound 16] registered an inhibition at 10 µM of 95% and an inhibition at 1 µM of 91%.

Regarding `CCCCc1cc(C(=O)OC(C)C)nn1Cc1ccc(-c2ccccc2-c2nn[nH]n2)cc1` [compound 17], the inhibition at 10 µM came out at 98% and the inhibition at 1 µM stood at 91%.

`CCCCCc1cc(C(=O)OCC)nn1Cc1ccc(-c2ccccc2-c2nn[nH]n2)cc1` [compound 18] yielded an inhibition at 10 µM of 88% and an inhibition at 1 µM of 54%.

For `CCCc1cc(C(=O)OCC)nn1Cc1ccc(-c2ccccc2-c2nn[nH]n2)cc1` [compound 19], the inhibition at 10 µM was found to be 90% and testing at 1 µM gave an inhibition of 62%.

In turn, `CCCCc1cc(C(=O)OCC(F)(F)F)nn1Cc1ccc(-c2ccccc2-c2nn[nH]n2)cc1` [compound 20] came in with an inhibition at 10 µM of 94% and an inhibition at 1 µM of 66%.

On to `CCCCc1cc(C(=O)OC)nn1Cc1ccc(-c2ccccc2-c2nn[nH]n2)cc1` [compound 22], for which at 10 µM the inhibition was 90% and the inhibition at 1 µM amounted to 61%.

In turn, `CCCCc1cc(C(=O)N2CCCC2)nn1Cc1ccc(-c2ccccc2-c2nn[nH]n2)cc1` [compound 25] displayed an inhibition at 10 µM of 96% and an inhibition at 1 µM of 77%.

The molecule `CCCCc1cc(C(=O)N2CCOCC2)nn1Cc1ccc(-c2ccccc2-c2nn[nH]n2)cc1` [compound 27] had an inhibition at 10 µM of 97% and an inhibition at 1 µM of 92%.

`CCCCc1cc(C(=O)N2CCN(C(c3ccccc3)c3ccccc3)CC2)nn1Cc1ccc(-c2ccccc2-c2nn[nH]n2)cc1` [compound 31] returned an inhibition at 10 µM of 89% and an inhibition at 1 µM of 38%.

Take `CCCCc1cc(C(=O)N2CCC(C(c3ccccc3)c3ccccc3)CC2)nn1Cc1ccc(-c2ccccc2-c2nn[nH]n2)cc1` [compound 32]: the inhibition at 10 µM amounted to 88% and the inhibition at 1 µM stood at 32%.
